# Test results taken from patent publication US5057493A, “Novel antibiotics R106” (priority 1988, dated 1991).
# Starred links: 1 amine or outer side, 2 acyl side, 3 side chain; linkers in the order of their positions; H or OH if unused. Non-standard residues stand in square brackets, D forms with d. Residues, ends and D or L forms follow the SMILES beside them. ξ: configuration not given here. ξNMeVal(3-OH) = CNC(C(=O)O)C(C)(C)O; NMeF = CN[CH](Cc1ccccc1)C(=O)O; X1 = CCC(C)C(O[*:1])C(=O)[*:2]; NMeV = CN[CH](C(=O)O)C(C)C
# Columns and labels:
# [1] = tested on: Aspergillus nidulans TIMM 0112; test: MIC by agar dilution method, casitone agar; type: cell-based; settings: 27° C. for 7 days
# [2] = tested on: Aspergillus crustorum TIMM 1332; test: MIC by agar dilution method, casitone agar; type: cell-based; settings: 27° C. for 7 days
# [3] = tested on: Trichophyton rubrum TIMM 1216; test: MIC by agar dilution method, casitone agar; type: cell-based; settings: 27° C. for 7 days
# [4] = tested on: Paracoccidioides brasiliensis TIMM 0878; test: MIC by agar dilution method, casitone agar; type: cell-based; settings: 27° C. for 7 days
# Protocol: (§1) The antibiotics R106 of the present invention are active against various fungi including pathogenic fungi. The minimum inhibitory concentration (MIC) of each antibiotic against various fungi was determined by the agar dilution method using casitone agar medium (2.0% glucose, 0.9% bacto-casitone, 1.0% yeast extract, 0.1% KH2 PO4, 0.1% Na2 HPO4, 1.0% sodium citrate, 2.0% agar: concentrations are all by w/v).
# (§2) After culturing at 27° C. for 7 days, each minimum inhibitory concentration was determined.
# [5] = tested on: Paracoccidioides brasiliensis TIMM 0880; test: MIC by agar dilution method, casitone agar; type: cell-based; settings: 27° C. for 7 days
# Protocol: as §1, §2
# [6] = tested on: Microsporum canis TIMM 0760; test: MIC by agar dilution method, casitone agar; type: cell-based; settings: 27° C. for 7 days
# [7] = Physicochemical properties of compound 1
# Excerpt: Physicochemical properties of compound 1 are as follows.
# [8] = tested on: Trichophyton mentagrophytes TIMM 1177; test: MIC by agar dilution method, casitone agar; type: cell-based; settings: 27° C. for 7 days
# [9] = tested on: Geotrichum candidum TIMM 0694; test: MIC by agar dilution method, casitone agar; type: cell-based; settings: 27° C. for 7 days
# Candida kefyr TIMM 0298 = test: MIC by agar dilution method, casitone agar; type: cell-based; settings: 27° C. for 4 days
# Protocol: as §1, with “The” for “The antibiotics R106 of the present invention are active against various fungi including pathogenic fungi. The”
# (§3) Each minimum growth inhibitory concentration was determined after culturing at 27° C. for 4 days.
# [10] = tested on: Candida tropicalis TIMM 0315; test: MIC by agar dilution method, casitone agar; type: cell-based; settings: 27° C. for 4 days
# Protocol: as §1, with “The” for “The antibiotics R106 of the present invention are active against various fungi including pathogenic fungi. The”
# as §3
# [11] = tested on: Candida albicans TIMM 1623; test: MIC by agar dilution method, casitone agar; type: cell-based; settings: 27° C. for 4 days
# Protocol: as §1, with “The” for “The antibiotics R106 of the present invention are active against various fungi including pathogenic fungi. The”
# as §3
# [12] = tested on: Rhodotorula rubra TIMM 0923; test: MIC by agar dilution method, casitone agar; type: cell-based; settings: 27° C. for 4 days
# Protocol: as §1, with “The” for “The antibiotics R106 of the present invention are active against various fungi including pathogenic fungi. The”
# as §3
# [13] = tested on: Cryptococcus neoformans TIMM 0355; test: MIC by agar dilution method, casitone agar; type: cell-based; settings: 27° C. for 4 days
# Protocol: as §1, with “The” for “The antibiotics R106 of the present invention are active against various fungi including pathogenic fungi. The”
# as §3
# [14] = tested on: Candida guilliermondii TIMM 0257; test: MIC by agar dilution method, casitone agar; type: cell-based; settings: 27° C. for 4 days
# Protocol: as §1, with “The” for “The antibiotics R106 of the present invention are active against various fungi including pathogenic fungi. The”
# as §3
# [15] = tested on: Candida glabrata TIMM 1062; test: MIC by agar dilution method, casitone agar; type: cell-based; settings: 27° C. for 4 days
# Protocol: as §1, with “The” for “The antibiotics R106 of the present invention are active against various fungi including pathogenic fungi. The”
# as §3
# [16] = tested on: Cryptococcus terreus TIMM 0424; test: MIC by agar dilution method, casitone agar; type: cell-based; settings: 27° C. for 4 days
# Protocol: as §1, with “The” for “The antibiotics R106 of the present invention are active against various fungi including pathogenic fungi. The”
# as §3
# [17] = tested on: Candida parapsilosis TIMM 0287; test: MIC by agar dilution method, casitone agar; type: cell-based; settings: 27° C. for 4 days
# Protocol: as §1, with “The” for “The antibiotics R106 of the present invention are active against various fungi including pathogenic fungi. The”
# as §3
# [18] = tested on: Candida albicans var. stellatoidia TIMM 1308; test: MIC by agar dilution method, casitone agar; type: cell-based; settings: 27° C. for 4 days
# Protocol: as §1, with “The” for “The antibiotics R106 of the present invention are active against various fungi including pathogenic fungi. The”
# as §3
# [19] = tested on: Candida glabrata TIMM 1064; test: MIC by agar dilution method, casitone agar; type: cell-based; settings: 27° C. for 4 days
# Protocol: as §1, with “The” for “The antibiotics R106 of the present invention are active against various fungi including pathogenic fungi. The”
# as §3
# [20] = tested on: Cryptococcus neoformans TIMM 0354; test: MIC by agar dilution method, casitone agar; type: cell-based; settings: 27° C. for 4 days
# Protocol: as §1, with “The” for “The antibiotics R106 of the present invention are active against various fungi including pathogenic fungi. The”
# as §3
# [21] = tested on: Candida albicans TIMM 0144; test: MIC by agar dilution method, casitone agar; type: cell-based; settings: 27° C. for 4 days
# Protocol: as §1, with “The” for “The antibiotics R106 of the present invention are active against various fungi including pathogenic fungi. The”
# as §3
# [22] = tested on: Cryptococcus laurentii TIMM 0352; test: MIC by agar dilution method, casitone agar; type: cell-based; settings: 27° C. for 4 days
# Protocol: as §1, with “The” for “The antibiotics R106 of the present invention are active against various fungi including pathogenic fungi. The”
# as §3
# [23] = tested on: Candida tropicalis TIMM 0312; test: MIC by agar dilution method, casitone agar; type: cell-based; settings: 27° C. for 4 days
# Protocol: as §1, with “The” for “The antibiotics R106 of the present invention are active against various fungi including pathogenic fungi. The”
# as §3
# [24] = tested on: Cryptococcus neoformans TIMM 0363; test: MIC by agar dilution method, casitone agar; type: cell-based; settings: 27° C. for 4 days
# Protocol: as §1, with “The” for “The antibiotics R106 of the present invention are active against various fungi including pathogenic fungi. The”
# as §3
# Candida krusei TIMM 0270 = test: MIC by agar dilution method, casitone agar; type: cell-based; settings: 27° C. for 4 days
# Protocol: as §1, with “The” for “The antibiotics R106 of the present invention are active against various fungi including pathogenic fungi. The”
# as §3
# [25] = tested on: Candida albicans TIMM 1529; test: MIC by agar dilution method, casitone agar; type: cell-based; settings: 27° C. for 4 days
# Protocol: as §1, with “The” for “The antibiotics R106 of the present invention are active against various fungi including pathogenic fungi. The”
# as §3
# [26] = tested on: Fonsecaea pedrosoi TIMM 0482; test: MIC by agar dilution method, casitone agar; type: cell-based; settings: 27° C. for 7 days
# [27] = tested on: Blastomyces dermatitidis TIMM 1690; test: MIC by agar dilution method, casitone agar; type: cell-based; settings: 27° C. for 7 days
# [28] = tested on: Cladosporium bantianum TIMM 0343; test: MIC by agar dilution method, casitone agar; type: cell-based; settings: 27° C. for 7 days
# [29] = tested on: Phialophora verrucosa TIMM 0903; test: MIC by agar dilution method, casitone agar; type: cell-based; settings: 27° C. for 7 days
# [30] = tested on: Aspergillus terreus TIMM 0120; test: MIC by agar dilution method, casitone agar; type: cell-based; settings: 27° C. for 7 days
smiles,measurement,setting,value
CCC(C)C1NC(=O)C2CCCN2C(=O)C(Cc2ccccc2)N(C)C(=O)C(Cc2ccccc2)NC(=O)C(C(C)C)N(C)C(=O)C(C(C)CC)OC(=O)C(C(C)(C)O)N(C)C(=O)C(CC(C)C)NC(=O)C(C(C)C)N(C)C1=O (stereo not shown) [Compound 1] (cyclo([ξNMeVal(3-OH)][X1][NMeV]F[NMeF]PI[NMeV]L); configuration not given here),Minimum Inhibitory Concentration,[1],0.16 µg/mL
same,Minimum Inhibitory Concentration,[2],> 80 µg/mL
same,Minimum Inhibitory Concentration,[3],> 80 µg/mL
same,Minimum Inhibitory Concentration,[4],80 µg/mL
same,Minimum Inhibitory Concentration,[5],0.31 µg/mL
same,Minimum Inhibitory Concentration,[6],> 80 µg/mL
same,"Acidic, neutral or basic",[7],neutral substance
same,Solubility in solvent,[7]; organic solvents,"soluble in chloroform, methanol, ethanol, N,N-dimethylformamide and dimethylsulfoxide"
same,Solubility in solvent,[7]; water,sparingly soluble in water
same,Minimum Inhibitory Concentration,[8],> 80 µg/mL
same,Minimum Inhibitory Concentration,[9],0.63 µg/mL
same,Minimum Inhibitory Concentration,Candida kefyr TIMM 0298,0.16 µg/mL
same,Minimum Inhibitory Concentration,[10],0.08 µg/mL
same,Minimum Inhibitory Concentration,[11],≤ 0.04 µg/mL
same,Minimum Inhibitory Concentration,[12],0.63 µg/mL
same,Minimum Inhibitory Concentration,[13],0.31 µg/mL
same,Minimum Inhibitory Concentration,[14],0.08 µg/mL
same,Minimum Inhibitory Concentration,[15],≤ 0.04 µg/mL
same,Minimum Inhibitory Concentration,[16],0.31 µg/mL
same,Minimum Inhibitory Concentration,[17],0.16 µg/mL
same,Minimum Inhibitory Concentration,[18],≤ 0.04 µg/mL
same,Minimum Inhibitory Concentration,[19],0.08 µg/mL
same,Minimum Inhibitory Concentration,[20],0.63 µg/mL
same,Minimum Inhibitory Concentration,[21],≤ 0.04 µg/mL
same,Minimum Inhibitory Concentration,[22],0.31 µg/mL
same,Minimum Inhibitory Concentration,[23],0.08 µg/mL
same,Minimum Inhibitory Concentration,[24],1.25 µg/mL
same,Minimum Inhibitory Concentration,Candida krusei TIMM 0270,≤ 0.04 µg/mL
same,Minimum Inhibitory Concentration,[25],≤ 0.04 µg/mL
same,Minimum Inhibitory Concentration,[26],0.31 µg/mL
same,Minimum Inhibitory Concentration,[27],≤ 0.04 µg/mL
same,Minimum Inhibitory Concentration,[28],0.63 µg/mL
same,Minimum Inhibitory Concentration,[29],> 80 µg/mL
same,Minimum Inhibitory Concentration,[30],5 µg/mL
